This is an account of results in patent publication US20250129104A1, “7H-PYRROLO[2,3-D]PYRIMIDINES AND PREPARATION AND USES THEREOF” (BioSplice Therapeutics, Inc., priority 2021, published 2025).

In this assay the target is recombinant DYRK1A kinase (Homo sapiens (Human), UniProt Q13627). The assay can be described thus: DYRK1A kinase assay (Ser/Thr 18 peptide Z-lyte FRET assay). In kind it is biochemical. The following applies: DYRK1A kinase activity; 15 μM ATP, 1 h room temperature; method text calls the value IC50. The gist of the method: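 Recombinant human DYRK1A (0.25 μg/mL) with 15 μM ATP and 4 μM Ser/Thr 18 peptide, 1 h at room temperature with compound (11-point, 1:3, 10 μM top, duplicate). Z-lyte development 1 h, then coumarin/fluorescein FRET emission ratio converted to % phosphorylation; IC50 by non-linear regression.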
Consider `CNc1ncc2c(-c3ccc4ncccc4c3)c[nH]c2n1` [Compound 1863, N-Methyl-5-(quinolin-6-yl)-7H-pyrrolo[2,3-d]pyrimidin-2-amine], for which the EC50 is 2.9 nM.
For `CC(C)(C)CNc1ncc2c(-c3ccc4ncccc4c3)c[nH]c2n1` [Compound 1867, N-Neopentyl-5-(quinolin-6-yl)-7H-pyrrolo[2,3-d]pyrimidin-2-amine] the value was 69.7 nM; for `CC(C)(F)CNc1ncc2c(-c3ccc4ncccc4c3)c[nH]c2n1` [Compound 1869, N-(2-Fluoro-2-methylpropyl)-5-(quinolin-6-yl)-7H-pyrrolo[2,3-d]pyrimidin-2-amine], 4 nM; for `c1cnc2ccc(-c3c[nH]c4nc(NC5CCOCC5)ncc34)cc2c1` [Compound 1890, 5-(Quinolin-6-yl)-N-(tetrahydro-2H-pyran-4-yl)-7H-pyrrolo[2,3-d]pyrimidin-2-amine], 6 nM.
To `CN1CCN(c2cccc(Nc3ncc4c(-c5ccc6ncccc6c5)c[nH]c4n3)c2)CC1` [Compound 1891, N-(3-(4-Methylpiperazin-1-yl)phenyl)-5-(quinolin-6-yl)-7H-pyrrolo[2,3-d]pyrimidin-2-amine] belongs 4.1 nM; to `c1cnc2ccc(-c3c[nH]c4nc(Nc5ccncc5)ncc34)cc2c1` [Compound 1892, N-(pyridin-4-yl)-5-(quinolin-6-yl)-7H-pyrrolo[2,3-d]pyrimidin-2-amine], 0.8 nM.
For `CN1CCN(c2cc(Nc3ncc4c(-c5ccc6ncccc6c5)c[nH]c4n3)ccn2)CC1` [Compound 1893, N-(2-(4-Methylpiperazin-1-yl)pyridin-4-yl)-5-(quinolin-6-yl)-7H-pyrrolo [2,3-d]pyrimidin-2-amine] the value was 0.5 nM; for `CN1CCN(c2ccc(Nc3ncc4c(-c5ccc6ncccc6c5)c[nH]c4n3)cn2)CC1` [Compound 1894, N-(6-(4-Methylpiperazin-1-yl)pyridin-3-yl)-5-(quinolin-6-yl)-7H-pyrrolo [2,3-d]pyrimidin-2-amine], 2.3 nM; for `CN1CCN(c2ccc(CNc3ncc4c(-c5ccc6ncccc6c5)c[nH]c4n3)cn2)CC1` [Compound 1895, N-((6-(4-Methylpiperazin-1-yl)pyridin-3-yl)methyl)-5-(quinolin-6-yl)-7H-pyrrolo[2,3-d]pyrimidin-2-amine], 3.6 nM.
Consider `c1cnc2ccc(-c3ncc4c(-c5ccc6ncccc6c5)c[nH]c4n3)cc2c1` [Compound 1896, 6,6′-(7H-pyrrolo[2,3-d]pyrimidine-2,5-diyl)diquinoline], for which the EC50 came out at 15.6 nM.
For `Cn1cc(-c2ncnc3[nH]cc(-c4ccc5ncccc5c4)c23)cn1` [Compound 1897, 6-(4-(1-methyl-1H-pyrazol-4-yl)-7H-pyrrolo[2,3-d]pyrimidin-5-yl)quinoline] the value was 18.1 nM; for `c1cnc2ccc(-c3c[nH]c4ncnc(N[C@H]5CC[C@H](N6CCOCC6)CC5)c34)cc2c1` [Compound 1898, N-(trans-4-Morpholinocyclohexyl)-5-(quinolin-6-yl)-7H-pyrrolo[2,3-d]pyrimidin-4-amine], 7.5 nM.
For `Cc1nc(OCC2CCN(C)CC2)c2c(-c3ccc4ncccc4c3)c[nH]c2n1` [Compound 1899, 6-(2-Methyl-4-((1-methylpiperidin-4-yl)methoxy)-7H-pyrrolo[2,3-d]pyrimidin-5-yl)quinoline] the value was 18.6 nM; for `CC(C)(C)CNc1ncc2c(-c3ccc4nccnc4c3)c[nH]c2n1` [Compound 1911, N-Neopentyl-5-(quinoxalin-6-yl)-7H-pyrrolo[2,3-d]pyrimidin-2-amine], 117 nM.
To `C[C@@H](Nc1ncc2c(-c3ccc4nccnc4c3)c[nH]c2n1)C(F)(F)F` [Compound 1916, (R)-5-(Quinoxalin-6-yl)-N-(1,1,1-trifluoropropan-2-yl)-7H-pyrrolo[2,3-d]pyrimidin-2-amine] belongs 6 nM.
As to `CN1CCC(Nc2ncc3c(-c4ccc5nccnc5c4)c[nH]c3n2)CC1` [Compound 1932, N-(1-Methylpiperidin-4-yl)-5-(quinoxalin-6-yl)-7H-pyrrolo[2,3-d]pyrimidin-2-amine], the EC50 turned out to be 12.5 nM.

In general, EC50 refers to the midpoint of the concentration-response curve.
